The source made the active and inactive calls.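 How the source made its calls: active means compounds giving half or more protection of infected cells from virus-caused growth loss, again on retest; inactive means the rest.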
System: CEM cells HIV-1 protection, formazan growth assay
Experiment: NCI AIDS Antiviral Assay
Details: for IC50: measured here: growth of uninfected CEM cells
Summary of the method: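 Human CEM cells, uninfected and HIV-1-infected, received five drug concentrations, and growth was read by soluble formazan assay. Compounds giving at least 50% protection were retested; reproducible 100% protection defined confirmed active.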

| SMILES | EC50 | IC50 | outcome |
| --- | --- | --- | --- |
| Nc1nc2ncn(CC(O)COC(=O)c3ccccc3)c2c(=O)[nH]1 (stereo not drawn) | > 21.9 µM | > 21.9 µM |  |
| CC1(C)CCCC2(C)C1CCC1(C)OC3=CC(=O)C(O)=CC3=CC12 (stereo not drawn) | > 30.2 µM | 2.82 µM |  |
| O=C1CSC(c2cccc([N+](=O)[O-])c2)N1c1ccc(-n2c(-c3ccccc3)nc3ccccc3c2=O)cc1 (stereo not drawn) | > 200 µM | > 200 µM |  |
| CC(C)=[CH][Sb]([Br])([CH]=C(C)C)([CH]=C(C)C)[c]1ccccc1 | > 562 µM | 6.76 µM |  |
| O=C(c1cc2ccccc2[nH]1)C(O)(c1cc2ccccc2[nH]1)c1cc2ccccc2[nH]1 | > 9.33 µM | > 9.33 µM |  |
| O=c1oc2ccccc2c(O)c1C(c1cccs1)c1c(O)c2ccccc2oc1=O | > 200 µM | 30.2 µM |  |
| N#Cc1c(Cl)nc2ccccc2c1N=[N+]=[N-] | > 200 µM | 0.912 µM |  |
| N#CCC(=O)N/N=C1/C(=O)N(c2cc(Cl)ccc2Cl)C(=O)C(=O)C1c1nc2ccccc2s1 (stereo not drawn) |  |  | inactive |
| CCCCN(C=O)CCc1ccccc1 | > 1230 µM | > 1230 µM |  |
| C=CCOC(=O)N(C)CC(OC(=O)C(C)(C)C)C1(c2ccc3c(c2)OCO3)C=CC(=O)C=C1 (stereo not drawn) |  |  | inactive |
| CCN(CC)CCOc1ccc(/C=C(\C#N)c2ccc(OC)cc2)cc1 | > 200 µM | 2.14 µM |  |
| O=C1CC2SC(COCc3ccccc3)(CCN2Cc2ccccc2)C1 (stereo not drawn) |  | 41.7 µM | inactive |
| CC1=C(C(=O)CC(=O)C(=O)Nc2ccc(C)c(C)c2)Sc2ccccc2N1 | > 6.92 µM | > 6.92 µM |  |
| CCN1C(NN)=NS(=O)(=O)c2ccccc21 | > 200 µM | > 200 µM |  |
| O=c1oc2ccccc2c2nc3ccccc3cc12 |  |  | inactive |
| CCN(CC)C(=S)SS(=O)(=O)c1cccc(N)c1 | > 200 µM | > 200 µM |  |
| Cc1cc(NC(=O)Nc2ccc(N=Nc3cc(S(=O)(=O)O)c4cccc(S(=O)(=O)O)c4c3)c(C)c2)ccc1N=Nc1cc(S(=O)(=O)O)c2cccc(S(=O)(=O)O)c2c1 | 20 µM | > 100 µM |  |
| c1ccc(-c2nnc(-c3ccccc3)c3nonc23)cc1 | > 95.5 µM | > 95.5 µM |  |
| O=C(O)c1cc(-c2ccccc2O)nc2ccccc12 | > 355 µM | 191 µM |  |
| NNC(=O)CCCCCCCC(=O)O | > 200 µM | > 200 µM |  |
| O=C(O)c1cc(O)c2c(c1)Cc1cccc(O)c1C2=O | > 200 µM | 28.8 µM |  |
| O=C1C(=O)c2ccccc2C(O)=C1C1CCCCC1 | > 263 µM | 40.7 µM |  |
| Cc1ccc2c(c1)[nH]c(=S)n2/C=C(\c1ccccc1)S(=O)Cc1ccccc1 (stereo not drawn) | > 200 µM | > 200 µM |  |
| O=C(/C=C/c1ccc(Cl)cc1)c1cccs1 | > 200 µM | 1.23 µM |  |

| SMILES | EC50 | IC50 | outcome |
| --- | --- | --- | --- |
| O=c1[nH]c(=O)c2c([nH]1)[nH]c1ccc(Br)cc12 | > 200 µM | 34.7 µM |  |
| C(=C1/CCCCC([n+]2ccccc2)=N1)/c1ccccc1 |  |  | inactive |
| CC1(C)CC(O)C2=C(O1)C(=O)c1ncccc1C2=O (stereo not drawn) |  |  | inactive |
| COC(=O)C(C)NC1=C(Cl)C(=O)C(NC(C)C(=O)OC)=C(Cl)C1=O (stereo not drawn) |  |  | inactive |
| O=C(CCCNc1nc(-c2ccccc2)cs1)c1cccs1 | > 50.1 µM | > 50.1 µM |  |
| N#CCN1CCCN(CC#N)CCN(CC#N)CCCN(CC#N)CC1 | > 200 µM | 141 µM |  |
| Clc1nc(Cl)nc(Nc2ccccc2Cl)n1 | > 200 µM | 97.7 µM |  |
| O=c1cnn2c(n1)OC1C(O)C(CO)OC12 (stereo not drawn) | > 200 µM | 19.1 µM |  |
| O=C(/C=C\c1cccc(C(F)(F)F)c1)c1ccccc1 |  |  | inactive |
| COC(=O)c1cc(=O)nc2cc3cccccc3n12 |  |  | inactive |
| CCOC(=O)c1nn2c(C)nnc2s1 |  |  | inactive |
| CC(C)(C)NNC(=O)/C(=C/c1ccc([N+](=O)[O-])cc1)NC(=O)c1ccccc1 | > 7.08 µM | > 7.08 µM |  |
| CN(C)C(=O)/N=N/C(=O)N(C)C | > 89.1 µM | 67.6 µM |  |
| Cc1ccc(NC(=O)CCc2nnc(N)o2)cc1 | > 380 µM | > 380 µM |  |
| NC1=CN(Cc2ccccc2)C2=N/C(=C\c3ccccc3)C(=O)N12 | > 200 µM | 77.6 µM |  |
| COC(=O)c1ccccc1/C=C1/Cc2ccccc2C1=O | > 200 µM | > 200 µM |  |
| C#CCNC(=O)NCCCC(NC(C)=O)C(=O)NCc1ccccc1 (stereo not drawn) |  |  | inactive |
| COc1cc(C2=NC(C(C)C)CO2)c(OC)c(OC)c1OC (stereo not drawn) | > 43.7 µM | > 43.7 µM |  |
| CNC(=O)O/N=C1\N(C)CN(c2ccccc2)C12CCN(CCCC(=O)c1ccc(F)cc1)CC2 | > 200 µM | 105 µM |  |
| c1ccc2c(c1)NC(SSC1Nc3ccccc3S1)S2 (stereo not drawn) | > 200 µM | > 200 µM |  |
| CC(Oc1cc2oc(=O)cc(-c3ccccc3)c2cc1Cl)C(=O)O (stereo not drawn) |  |  | inactive |
| CSC1=C(C#N)C(=S)N=C(N)C1C(=O)Nc1ccc(C)cc1 (stereo not drawn) | > 200 µM | > 100 µM |  |
| NS(=O)(=O)c1ccc(NC(=O)Cc2nc3ccccc3s2)cc1 | > 195 µM | 14.1 µM |  |
